According to US7968521B2, “Stable cystal of protected pseudouridine” (Yamasa Corporation, priority 2005, dated 2011):

What was measured:
[1] = Stability (1): storage in a sealed vessel at 60° C. and a relative humidity of 30%, percent remaining by HPLC; type: physicochemical; conditions: relative humidity 30%; for Percent remaining (%) Day 3 / Percent remaining (%) Day 14 / Percent remaining (%) Day 23: sealed vessel; for Percent remaining (%) Day 3: Day 3, HPLC; for Percent remaining (%) Day 14: Day 14, HPLC; for Percent remaining (%) Day 23: Day 23, HPLC
Protocol: (§1) The crystalline 5′-O-(4,4′-dimethoxytrityl)pseudouridine produced in Example 1 was maintained in a sealed vessel at 60° C. and a relative humidity of 30%. Thereafter, the percent remaining of the compound was determined through HPLC, and the value was compared with that of the same compound in amorphous form, which had been separately prepared, so as to evaluate stability.

[2] = Stability (2): storage in a desiccator at 25±2° C. and a relative humidity of 33%, 57% or 75%, percent remaining by HPLC; type: physicochemical; conditions: fourteen days; for Percent remaining (%) RH 33% / Percent remaining (%) RH 57% / Percent remaining (%) RH 75%: desiccator, HPLC
Protocol: as §1, with “desiccator” for “sealed vessel”, “25±2°” for “60°”, “33%, 57%, or 75%. Fourteen days after,” for “30%. Thereafter,”, “stability. […] At a relative humidity of 75%, the stability clearly varied between the two samples.” for “stability.”

COc1ccc(C(OC[C@H]2O[C@@H](c3c[nH]c(=O)[nH]c3=O)[C@H](O)[C@@H]2O)(c2ccccc2)c2ccc(OC)cc2)cc1 [Amorphous, 5′-O-(4,4′-dimethoxytrityl)pseudouridine, reference compound]
Percent remaining (%) Day 3 [1]: 97.8% | Percent remaining (%) Day 14 [1]: 88.6% | Percent remaining (%) Day 23 [1]: 62.1% | Percent remaining (%) RH 33% [2]: 98.0% | Percent remaining (%) RH 57% [2]: 96.7% | Percent remaining (%) RH 75% [2]: 0.1%

COc1ccc(C(OC[C@H]2O[C@@H](c3c[nH]c(=O)[nH]c3=O)[C@H](O)[C@@H]2O)(c2ccccc2)c2ccc(OC)cc2)cc1 [Crystalline, 5′-O-(4,4′-dimethoxytrityl)pseudouridine]
thermal stability compared with the compound of amorphous form [1]: higher thermal stability | Percent remaining (%) Day 3 [1]: 99.0% | Percent remaining (%) Day 14 [1]: 97.6% | Percent remaining (%) Day 23 [1]: 95.7% | Percent remaining (%) RH 33% [2]: 98.7% | Percent remaining (%) RH 57% [2]: 98.5% | Percent remaining (%) RH 75% [2]: 60.7% | stability against moisture compared with the amorphous form ([2]; relative humidity 33%, 57% or 75%): more stable against moisture
